The first experiment deals with T1, human recombinant Yes [a.a. 2–543 (end)] (Homo sapiens, UniProt P07947).
T1 construct: human recombinant Yes [a.a; 2–543 (end)]; purchased BPS Bioscience 40488
T1 sequence (P07947 2-543): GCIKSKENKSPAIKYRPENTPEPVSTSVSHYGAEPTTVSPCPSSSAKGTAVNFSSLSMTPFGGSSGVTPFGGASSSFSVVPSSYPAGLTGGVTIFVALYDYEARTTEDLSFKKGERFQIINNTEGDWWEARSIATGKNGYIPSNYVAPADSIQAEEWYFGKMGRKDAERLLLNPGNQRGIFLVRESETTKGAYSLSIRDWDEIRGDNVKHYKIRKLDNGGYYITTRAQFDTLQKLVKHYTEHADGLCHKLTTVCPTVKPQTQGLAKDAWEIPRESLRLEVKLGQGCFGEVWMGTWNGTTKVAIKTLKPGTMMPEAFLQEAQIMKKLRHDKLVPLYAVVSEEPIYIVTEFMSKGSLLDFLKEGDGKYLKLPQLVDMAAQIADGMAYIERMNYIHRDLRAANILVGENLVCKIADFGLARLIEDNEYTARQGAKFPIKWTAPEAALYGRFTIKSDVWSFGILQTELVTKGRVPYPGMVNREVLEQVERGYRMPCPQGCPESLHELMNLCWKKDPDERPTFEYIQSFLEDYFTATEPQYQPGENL
As to the kind of experiment: ADP-Glo kinase assay, inhibition rates of Yes phosphorylation activity (first and second screening). It counts as biochemical. The conditions noted are these: first screening; mean of n = 4 wells; 10 μmol L−1 compound. A digest of the protocol:
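Hits from a first pass were rescreened after re-dissolution from fresh powder. The first pass reported the mean inhibition rate of quadruplicate wells per compound. Activity was that of recombinant human Yes [a.a. 2–543] kinase, read out with the ADP-Glo ADP-detection method.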
For orientation: ADP-Glo turns the ADP formed in a reaction into a luminescent signal.
In the case of `Cc1cc(C)c(C(=O)COc2ncnc3ccccc23)cc1C` [Compound Z18537178], the “First screening IR (inhibition rate)” value is recorded as 7%.
Take `O=C(NCCN1CCc2ccccc2C1)Nc1ccncc1F` [Compound Z1677754180]: the “First screening IR (inhibition rate)” value was 0%.
Still for that read-out and setting: the result for `Cn1c(=O)[nH]c(=O)c2c1nc(N1CCN(C/C=C/c3ccccc3)CC1)n2Cc1ccc(Cl)cc1` [Compound Z246071802] reads -14%; that for `Cc1ccc(-n2c(C)c(C=O)c3c2CCc2cn(-c4ccccc4)nc2-3)cc1` [Compound Z56788048], -7%; that for `Cc1sc2ncnc(N/N=C/c3cccc(Br)c3)c2c1C` [Compound Z49890557], 5%.
Turning to `CN(C)c1nc(N)nc(CSCC(=O)Nc2cccc(Cl)c2Cl)n1` [Compound Z197452730], the “First screening IR (inhibition rate)” value is 4%.
Still for that read-out and setting: next, `Cc1ccc(C)c(CN2CCN(c3nc4c(c(=O)[nH]c(=O)n4C)n3C/C=C/c3ccccc3)CC2)c1` [Compound Z237731644]: 5%.
Same read-out and setting: the result for `Cc1cc(F)cc2[nH]c(C(=O)NC3CN(C(=O)OC(C)(C)C)CC3C#N)cc12` (stereo not shown) [Compound Z1671371372] reads 6%; that for `CCS(=O)(=O)Cc1cccc(S(=O)(=O)N(C)C)c1` [Compound Z416890194], -10%.
Still for that read-out and setting: the result for `O=C(NCCCc1c[nH]c2ccccc12)Nc1ccncc1F` [Compound Z1677751393] reads 19%; that for `Cc1nc(NC(=O)c2cccc(NC(N)=O)c2)sc1SCC#N` [Compound Z1000171966], -2%.
Turning to `Cc1sc2ncnc(N/N=C/c3ccncc3)c2c1C` [Compound Z49890729], the “First screening IR (inhibition rate)” value was determined as 3%.
In the case of `Cc1cc(C)n(CCCNC(=O)c2[nH]c3c(c2C)C(=O)CCC3)n1` [Compound Z51995634], the “First screening IR (inhibition rate)” value turned out to be 3%.
The same measure, in the same setting: the result for `NC(=O)c1cc(NC(=O)c2cccnc2Nc2cccc(F)c2)n[nH]1` [Compound Z1451063255] reads 2%; that for `C=CCn1c(SCc2cc(=O)n3ccsc3n2)nnc1-c1ccncc1` [Compound Z24172012], 4%.
The same measure, in the same setting: next, `CN(C)C(=O)Sc1ccc(NC(=O)COc2ccc(F)cc2)cc1` [Compound Z1126778415]: -17%; `c1nc(N2CCCC2c2ccsc2)c2[nH]cnc2n1` (stereo not shown) [Compound Z1343239610]: 12%; `Cc1ccc(S(=O)(=O)C2CS(=O)(=O)CC2O)c(C)c1` (stereo not shown) [Compound Z1549639934]: -1%.
Still for that read-out and setting: next, `Cc1nc(-c2ccc(C(=O)OCCCn3cccn3)cc2)n[nH]1` [Compound Z1417129003]: 10%; `Cc1c(-c2ccc(OC(F)F)cc2)nc2ccccc2c1-c1ccccc1.Cl` [Compound Z48951073]: 4%; `O=C(c1cc(-c2ccccc2)nc2c1cnn2Cc1cccc(F)c1)N1CCC1` [Compound Z117073454]: 5%.
Consider `CS1(=O)=NC=C(C(=O)O)C=C1` (stereo not shown) [Compound Z1262519784], for which the “First screening IR (inhibition rate)” value stood at 52%.
For the compound `Cc1ccn2c(CNc3cc(C(N)=O)cc(F)c3C)cnc2c1` [Compound Z1462541066], the “First screening IR (inhibition rate)” value is reported as 33%.
Still for that read-out and setting: next, `COc1ccc(-n2ccc(C(=O)N3CCCCC3c3cn[nH]c3)n2)cc1` (stereo not shown) [Compound Z1198921141]: 5%.
Still for that read-out and setting: next, `CN1C/C(=C/c2ccc(F)cc2)c2nc3ccccc3c(C(=O)O)c2C1` [Compound Z46114693]: -2%; `O=C(CCc1ccc(S(=O)(=O)N2CCCC2)cc1)NCC(c1ccccc1Cl)N1CCCC1` (stereo not shown) [Compound Z166811416]: -3%.
Turning to `Cc1noc(C)c1COC(=O)CCc1nc(-c2cccs2)no1` [Compound Z114088706], the “First screening IR (inhibition rate)” value is recorded as 9%.
Consider `CS(=O)(=O)CS(=O)(=O)C(F)(F)F` [Compound Z540725378], for which the “First screening IR (inhibition rate)” value was -4%.
As to `CN1C/C(=C/c2ccc3c(c2)OCO3)c2nc3ccccc3c(C(=O)O)c2C1` [Compound Z46114673], the “First screening IR (inhibition rate)” value is listed as -9%.
On to `O=S1(=O)CCC(CNS(=O)(=O)c2c[nH]c3nccc(Cl)c23)C1` (stereo not shown) [Compound Z1547285504], for which the “First screening IR (inhibition rate)” value is recorded as -14%.
As to `CCCCN(C1CCS(=O)(=O)C1)S(=O)(=O)c1ccc(Br)cc1Cl` (stereo not shown) [Compound Z223263980], the “First screening IR (inhibition rate)” value came to 5%.
The same measure, in the same setting: the result for `O=C(Nc1cc(N2CCCS2(=O)=O)ccc1O)c1cccc(C(F)(F)F)c1` [Compound Z573928840] reads -18%.
Same read-out and setting: the result for `Cc1ccc(-n2ncc(C(=O)Nc3ccccc3F)c2C2CC2)cc1Cl` [Compound Z363094390] reads -5%; that for `O=C(Nc1nccs1)C1CCCN(C(=O)c2[nH]ncc2Br)C1` (stereo not shown) [Compound Z1177677805], 6%.
As for `C=CCN1C(=O)c2ccc(C(=O)Nc3cc(C)cc(C)c3)cc2C1=O` [Compound Z30888972], the “First screening IR (inhibition rate)” value was determined as 20%.
Take `Cl.Fc1ccccc1-c1cc(-c2ccccc2)c2ccccc2n1` [Compound Z48951009]: the “First screening IR (inhibition rate)” value amounted to 5%.
For `CCc1cc(=O)[nH]c(-c2cccc(NC(=O)C3(N4CCOCC4)CCCC3)c2)n1` [Compound Z1203120735], the “First screening IR (inhibition rate)” value came out at 3%.
As for `COCCOc1ccc(CNc2ncnc3ccccc23)cn1` [Compound Z645525338], the “First screening IR (inhibition rate)” value is -2%.
The same measure, in the same setting: the result for `NC(=O)C1CCCN(c2nc(-c3ccncc3)nc3ccccc23)C1` (stereo not shown) [Compound Z239623050] reads 13%; that for `N#Cc1c(NC(=O)COC(=O)c2cn(-c3ccccc3)nc2-c2cccnc2)oc(-c2ccccc2)c1-c1ccccc1` [Compound Z56941227], -9%; that for `CCN(CC)S(=O)(=O)c1ccc(N2CCC(NC(C)C)CC2)c([N+](=O)[O-])c1` [Compound Z1082766798], 8%.
For `COc1ccc(-n2cc(-c3ccccc3)c3c(NCCCO)ncnc32)cc1` [Compound Z57455872], the “First screening IR (inhibition rate)” value was found to be 1%.
Same read-out and setting: next, `O=C(CSc1n[nH]c(-c2ccccc2)n1)N1N=C(c2ccc(Cl)cc2)CC1c1ccco1` (stereo not shown) [Compound Z25399394]: 13%.
With `Cc1cc(COC(=O)c2cc(-c3ccccc3)nc3c2cnn3Cc2ccccc2)no1` [Compound Z228519880], the “First screening IR (inhibition rate)” value is recorded as -10%.
The same measure, in the same setting: next, `CCOC(=O)c1cnc(SCC(=O)OC/C(O)=C(\C#N)c2nc3ccccc3[nH]2)nc1N` [Compound Z76798588]: 5%.
On to `CCc1ccc(-n2c(-c3ccccc3)cn3c4c(=O)n(CCN5CCOCC5)c(=O)n(C)c4nc23)cc1` [Compound Z237376112], for which the “First screening IR (inhibition rate)” value stood at 39%.
As to `O=C(CN1CCN(c2nc(-c3ccccn3)nc3scc(-c4ccccc4)c23)CC1)N1CCCCC1` [Compound Z165261492], the “First screening IR (inhibition rate)” value worked out at 13%.

Staying with this experiment, now noted: second screening, dissolved from fresh powder; n = 4; 10 μmol L−1 compound.
Consider `Cc1ccn2c(CNc3cc(C(N)=O)cc(F)c3C)cnc2c1` [Compound Z1462541066], for which the “Second screening IR (inhibition rate)” value is -26%.
Same read-out and setting: the result for `CCc1ccc(-n2c(-c3ccccc3)cn3c4c(=O)n(CCN5CCOCC5)c(=O)n(C)c4nc23)cc1` [Compound Z237376112] reads 20%.

These data come from publication PMC5607274, “An iterative compound screening contest method for identifying target protein inhibitors using the tyrosine-protein kinase Yes” (Scientific Reports, 2017).
